Laboratory results as given in paper PMC6836573, “Mitochondria-targeting fluorescent molecules for high efficiency cancer growth inhibition and imaging” (Chemical Science, 2019).
“Also recorded” adds a separate entry of the source.

Legend:
HCC4006 NSCLC cell line = assay: Cytotoxicity assay, HCC4006; format: cell-based; conditions: Homo sapiens; HCC4006 cells
Experimental: (§1) Cell culture, imaging, and cytotoxicity assay
(§2) RPMI-1640 medium. NIH/3T3 was cultured in DMEM medium. A549 was cultured in F-12K medium. T24 were cultured in McCoy's 5A medium. All culture mediums were supplemented with 10% fetal bovine serum. The cells were incubated at 37 °C in an atmosphere containing 5% CO 2. […]
(§3) Cytotoxicity assay. All test cell lines were incubated in 96-well plates overnight at a density of 3000 cells/well. The culture medium was replaced with 200 μL of culture medium, into which the testing compound was dispersed at various concentrations (1.95 - 500 μM). After incubating for 3 days, the viable cell numbers were checked and directly counted under microscopy (10X). A minimum of 1mm×1mm area was counted from each of at least three widely separated regions of cell culture. The cell proliferation rate was calculated by the following formula: cell proliferation rate (%) = (average cell number of sample wells / average cell number of control wells) ×100%.
(§4) The intact culture medium was evaluated as a control. […]
(§5) All animal experiments were performed in compliance with the Guidelines for the Care and Use of Research Animals as established by the Stanford University Animal Studies Committee. Female athymic nude mice (nu/nu) from 4−6 weeks old were obtained from Charles River Laboratories (Boston, MA, USA) and kept under sterile conditions. 5 × 106 human lung adenocarcinoma

H1693 NSCLC cell line = assay: Cytotoxicity assay, H1693; format: cell-based; conditions: Homo sapiens, NCI-H1693; H1693 cells
Experimental: as §1, §2, §3, §4

H2030 NSCLC cell line = assay: Cytotoxicity assay, H2030; format: cell-based; conditions: Homo sapiens, NCI-H2030; H2030 cells
Experimental: as §1, §2, §3, §4

H2228 NSCLC cell line = assay: Cytotoxicity assay, H2228; format: cell-based; conditions: Homo sapiens, NCI-H2228, H2228 cells
Experimental: as §1, §2, §3, §4, §5

H1944 NSCLC cell line = assay: Cytotoxicity assay, H1944; format: cell-based; conditions: Homo sapiens, NCI-H1944; H1944 cells
Experimental: as §1, §2, §3, §4

[1] = tested on: human lung cancer HCC827 xenograft; assay: HCC827 s.c. tumor model treatment; format: in vivo, nude mice
Experimental: HCC827 s.c. tumor model treatment and imaging
as §5, with “adenocarcinoma […]” for “adenocarcinoma”
(§6) HCC827 cells suspended in 150 µL of PBS were inoculated subcutaneously in the right shoulder […]
When the tumors reached ~3 mm in diameter, the tumor-bearing mice were administered i.v. with 5BMF (dissolved in 150 µL PBS, with 2 µL DMSO) at 15 mg/Kg on days 1, 3, 5, 7, 9, 11, 13, 15, 17, 19, 21. Correspondingly, untreated tumor-bearing mice serving as controls were administered i.v. with 150 µL 1× PBS pH 7.4 (with 2 µL DMSO) on the same days as the treated mice. Ten mice were used for each group. Length and width of the elliptical tumors were measured by Vernier caliper after every intravenous injection. Modified ellipsoid formula ½ (Length × Width2) was used to calculate the tumor size. The tumor growth was calculated with the ratio of final volume (FV) minus initial volume (IV) to initial volume (IV). […]
(§7) The tumor tissues and some important organs such as liver, kidney, lung, heart were isolated. After frozen, the specimens sectioned at 5-8 µm and processed for a standard hematoxylin-eosin (H&E) staining. Slides were viewed and photographed with the Nanozoomer Digital Pathology Image […]
The body weights of mice are presented as means ± standard deviation (SD) of n independent measurements. The tumor volumes are presented as means ± standard error of mean (SEM) of n independent measurements. Statistical analysis was performed using a Student’s t-test or Mann-Whitney U test. Statistical significance was assigned for P values <0.05. […]

[2] = tested on: subcutaneous HCC827 tumor; assay: In vivo and ex vivo fluorescence imaging of HCC827 tumor-bearing mice; set-up: species or system nude mice
Experimental: as §6
When the tumors reached ~3 mm in diameter, the tumor-bearing mice were administered i.v. with 5BMF (dissolved in 150 µL PBS, with 2 µL DMSO) at 15 mg/Kg on days 1, 3, 5, 7, 9, 11, 13, 15, 17, 19, 21. Correspondingly, untreated tumor-bearing mice serving as controls were administered i.v. with 150 µL 1× PBS pH 7.4 (with 2 µL DMSO) on the same days as the treated mice. Ten mice were used for each group. Length and width of the elliptical tumors were measured by Vernier caliper after every intravenous injection. Modified ellipsoid formula ½ (Length × Width2) was used to calculate the tumor size. The tumor growth was calculated with the ratio of final volume (FV) minus initial volume (IV) to initial volume (IV).
In vivo fluorescent imaging was taken 40 minutes and 2 hours after the injection of 5BMF 15 mg/kg. IVIS spectrum instrument was used. The excitation wavelength was set at 450 nm.
Collection wavelength was set at 550 nm, using a 3s acquisition time. 4 mice for each group were used. Mice were sacrificed and the organs were harvest after each set of in vivo imaging.
Fluorescent images of the organs were taken under the same settings.
as §7
The body weights of mice are presented as means ± standard deviation (SD) of n independent measurements. The tumor volumes are presented as means ± standard error of mean (SEM) of n independent measurements. Statistical analysis was performed using a Student’s t-test or Mann-Whitney U test. Statistical significance was assigned for P values <0.05.
Detail F16s Synthesis information

Compound: Cc1cc(Br)cc2c(/C=C/c3cc[n+](C)cc3)c[nH]c12 [5BMF]
- IC50 (HCC4006 NSCLC cell line): 106 nM
- IC50 (H1693 NSCLC cell line): 1180 nM
- IC50 (H2030 NSCLC cell line): 102 nM
- IC50 (H2228 NSCLC cell line): ~50 nM
- IC50 (H1944 NSCLC cell line): 261 nM
- day from which inhibitory tumor growth effects appeared ([1]; 15 mg/kg IV every other day): 9 days
- increase of mean tumor volume after the 21 day-treatment period ([1]; 15 mg/kg IV every other day, day 1-21, n = 10, PBS control ∼16 times): ~2 times
- toxicity to mice ([1]; 15 mg/kg IV, 21 days of treatment): no obvious toxicity
- tumor growth compared to the PBS treated control group ([1]; 15 mg/kg IV, 21 days, p = 0.0426 at day 21): significantly suppressed; also recorded: suppressed dramatically; also recorded: decreased dramatically
- body weight between control and treated groups ([1]; 15 mg/kg IV, 21 days, p = 0.477): no significant difference
- major organs' histologic examination (H&E) ([1]; 15 mg/kg IV, over four weeks, compared to control): did not reveal any significant microscopic lesions
- tumor pathologic section H&E staining ([1]; HCC827 tumor, 5BMF-treated): caused tumor inflammatory cell infiltration, fibrous tissue proliferation, and cell apoptosis
- accumulation in tumor, kidney, bone, stomach, bowel, pancreas and skin ([2]; ex vivo imaging at 40 min and 2 h PI): accumulated more 5BMF compared with the liver, spleen, heart, lung, and brain
- tumor/lung ratio ([2]; ex vivo imaging, 2 h PI, 15 mg/kg): ~7
- tumor to background ratio ([2]; in vivo fluorescence, 2 h post IV injection, 15 mg/kg): ~2
